{"source": "patent US20110245759A1", "about": "“Methods of Treating An Infection with Nitric Oxide” (NITRIC BIOTHERAPEUTICS, INC., priority 2008, published 2011)", "key": {"[1]": {"test_system": "coagulase-negative Staphylococci (CNS)", "test": "Full-thickness porcine wounds infected with bacteria, treated with nitric oxide with or without oxygen (Example 1)", "type": "in vivo, pig"}, "mild tinea pedis": {"test_system": "mild tinea pedis", "test": "Single-site clinical trial of gaseous nitric oxide in mild tinea pedis (Example 10)", "type": "in vivo, human", "details": "1% gaseous nitric oxide in nitrogen, 10 patients, FIG. 14", "description": "To evaluate the effectiveness of gaseous nitric oxide treatment against mild tinea pedis, a single-site clinical trial treating 10 human patients with mild tinea pedis was conducted. […] The foot of each patient was fitted with a flexible, plastic boot-like enclosure that was sealed at the mid-calf (see, for example, FIG. 19) and the foot was bathed with 1% gaseous nitric oxide in nitrogen at a fixed flow of 1 liter per minute for a total of 2 hours divided over 5 treatment days. Gas entered the boot-like enclosure near the toe region with passive diffusion from the enclosure into a well-ventilated examination room. On day 1, patients were treated for 10 minutes. On day 2, patients were treated for 20 minutes. On each of days 3, 4 and 5, patients were treated for 30 minutes. On days 0, 1, 2, 3, 4, 5 and 12, each patient was assessed by a podiatrist blinded to the patient's treatment group and given a clinical symptom severity score ranging from 0 to 64. The clinical symptom severity score is determined by scoring each of 8 categories (i.e., fissures/cracks, yellow crusting (ruptured blisters), maceration (white moist skin), pruritus (itching), scaling, erythema, vesicles/blisters and burning) on an 8-point scale (i.e., 0=absent, 1-2 mild, 3-5 moderate and 6-8 severe). […]"}, "[2]": {"test_system": "moderate-severe interdigital and/or moccasin-type tinea pedis", "test": "Single-site placebo-controlled clinical trial of gaseous nitric oxide in moderate-severe tinea pedis (Example 11)", "type": "in vivo, human", "details": "1% nitric oxide", "description": "To evaluate the effectiveness of gaseous nitric oxide treatment against moderate-severe interdigital and/or moccasin-type tinea pedis, a single-site, placebo-controlled clinical trial treating≧50 evaluable human patients with moderate-severe interdigital tinea pedis was conducted. […] The foot of each patient was fitted with a flexible, plastic boot-like enclosure that was sealed at the mid-calf (see, for example, FIG. 19) and the foot was bathed with 1% gaseous nitric oxide in nitrogen, or 1% gaseous nitric oxide and 20% oxygen in nitrogen, or placebo (i.e., nitrogen) at a fixed flow of 1 liter per minute for 40 minutes each day for each of three consecutive days, Gas entered the boot-like enclosure near the toe region with passive diffusion from the enclosure into a well-ventilated examination room. Each foot of each patient was fitted with an air-tight, ankle-high covering […] On days 1, 3 and 12, each patient was assessed by a podiatrist blinded to the patient's treatment group and given a clinical symptom severity score ranging from 0 to 64."}, "[3]": {"test_system": "Human head lice, permethrin(kdr)-resistant SF-HL strain", "test": "Gas chamber bioassay on human head louse females and eggs (Example 13)", "details": "for lice killed: adult female lice, 1 liter/minute", "description": "The ability of nitric oxide or nitric oxide+oxygen to kill human head louse females and eggs was evaluated using gas chamber bioassay.\nHuman head lice from the permethrin(kdr)-resistant SF-HL strain were used in a nitric oxide gas bioassay to determine louse mortality at different exposure intervals. Adult female lice and aged eggs (6-8 day old) were used in all bioassays. The lice or eggs were placed in the bottom of a sterile disposable Petri dishes (60×20 mm) and left uncovered. The dish with lice or eggs was placed inside a polyethylene bag and the bag was taped shut with HY-TAPE® (HY-TAPE Intl., Patterson, N.Y.) to seal the chamber and to minimize the volume of gas inside the chamber. The treatments used were either nitric oxide, in combination with oxygen mixed in equal parts at a final concentration of 10,000 ppm nitric oxide and 20% oxygen, or a treatment with nitric oxide alone at 10,000 ppm in nitrogen both with a flow rate of 1 liter/minute. The gas tank was connected to the chamber with PVC tubing and plastic connectors. The nitric oxide, in combination with oxygen, was mixed in the tubing before the chamber inlet. The chamber outlet was also connected with PVC tubing and fed to a NO scrubber to trap the NO gas leaving the chamber. Additionally, tufts of human hair (blond and brown) were placed inside the chamber for a 30 minute exposure interval to nitric oxide+oxygen to assess discoloration of the hair for cosmetic purposes."}, "[4]": {"details": "mixture of 1000 ppm nitric oxide and 21% oxygen; cited from earlier work"}, "[5]": {"details": "30 minute exposure interval, 10,000 ppm nitric oxide"}}}
{"compound": "[N]=O", "note": "[nitric oxide]", "values": [{"measurement": "amount of total bacteria in biopsies taken from the center of the wounds", "setting": "[1]; 10,000 ppm nitric oxide, p<0.05, FIG. 10", "result": "significant decrease"}, {"measurement": "average decrease of total bacteria in center biopsies, compared with nitric oxide in combination with oxygen", "setting": "[1]; pig, in vivo", "result": "smaller decrease"}, {"measurement": "average clinical symptom severity score (0 to 64) during treatment", "setting": "mild tinea pedis; 1 liter per minute, 2 hours over 5 treatment days", "result": "began to decrease on the second day of treatment and continued to decrease until the fifth day of treatment"}, {"measurement": "average clinical symptom severity score on day 12, seven days after the last treatment", "setting": "mild tinea pedis", "result": "remained as low as it was on day 5"}, {"measurement": "clinical symptom severity score on day 3 compared with day 1", "setting": "[2]; 40 minutes each day for three days, all patients treated", "result": "lower on day 3 than on day 1"}, {"measurement": "clinical symptom severity score on day 12 compared with day 3", "setting": "[2]; 40 minutes each day for three days, most patients treated", "result": "lower clinical symptom severity score on day 12 than on day 3"}, {"measurement": "patients with interdigital tinea who reached the primary clinical endpoint score of ≦8", "setting": "[2]; of the 13 patients with interdigital tinea", "result": 8, "unit": "patients"}, {"measurement": "ovicidal activity on aged eggs (6-8 days old)", "setting": "[3]; [5]", "result": "not ovicidal"}, {"measurement": "lice killed", "setting": "[3]; 10 minute exposure interval, 10,000 ppm nitric oxide", "result": "did not kill any"}, {"measurement": "lice killed", "setting": "[3]; [5]", "result": "did not kill any"}, {"measurement": "egg hatchability", "setting": "[3]; aged eggs (6-8 days old), 30 minute exposure interval, compared with untreated control eggs", "result": "not different from untreated control eggs"}, {"measurement": "time for half of the nitric oxide to react to become nitric dioxide", "setting": "[4]", "result": "about 3.5 minutes"}]}
